Results as given in paper PMC3969094 (Journal of Medicinal Chemistry, 2014).
Positions of bridges follow the written chain, without caps; N, C: chain ends. Non-standard residues stand in square brackets, D forms with d. Residues, ends and D or L forms follow the SMILES beside them. *: point of attachment. FITC = O=C1OC2(c3ccc(O)cc3Oc3cc(O)ccc32)c2ccc(NC(=S)*)cc21; Phe(3,4-Cl2) = N[C@@H](Cc1ccc(Cl)c(Cl)c1)C(=O)O; S5 = C=CCCC[C@](C)(N)C(=O)O; Ahx = NCCCCCC(=O)O

How the values were obtained:
[1] = molecular target: RPA70N (Homo sapiens, UniProt P27694); assay: FPA direct binding of FITC-labeled peptides; settings: stapled peptides, versus phenylalanine counterparts
[2] = molecular target: RPA70C/32D/14; assay: Direct binding FPA assay, selectivity; settings: read-out: Kd for RPA70C/32D/14, FITC-labeled stapled peptide

| Structure (SMILES) | increase in affinity by dichlorophenylalanine substitution [1] | Kd [2] |
| --- | --- | --- |
| CC(C)C[C@H](NC(=O)[C@H](C)NC(=O)[C@H](Cc1ccc(Cl)c(Cl)c1)NC(=O)[C@H](Cc1c[nH]c2ccccc12)NC(=O)[C@]1(C)CCCC=CCCC[C@](C)(NC(=O)[C@H](C)NC(=O)[C@@H](NC(=O)[C@H](Cc2ccccc2)NC(=O)[C@H](CC(N)=O)NC(=O)CCCCCNC(=S)Nc2ccc3c(c2)C(=O)OC32c3ccc(O)cc3Oc3cc(O)ccc32)[C@@H](C)O)C(=O)N[C@@H](CC(=O)O)C(=O)N[C@@H](CC(C)C)C(=O)N[C@@H](CCC(=O)O)C(=O)N1)C(N)=O [Peptide-38] ({FITC-Ahx}-NFTA[S5]DLE[S5]W[Phe(3,4-Cl2)]AL-NH2; staple 5-9) | 31 fold | – |
| CC(C)C[C@H](NC(=O)[C@H](C)NC(=O)[C@H](Cc1ccc(Cl)c(Cl)c1)NC(=O)[C@H](Cc1c[nH]c2ccccc12)NC(=O)[C@]1(C)CCCC=CCCC[C@](C)(NC(=O)[C@H](C)NC(=O)[C@@H](NC(=O)[C@H](Cc2ccccc2)NC(=O)[C@H](CC(N)=O)NC(=O)CCCCCNC(=S)Nc2ccc3c(c2)C(=O)OC32c3ccc(O)cc3Oc3cc(O)ccc32)[C@@H](C)O)C(=O)N[C@@H](CC(N)=O)C(=O)N[C@@H](CC(C)C)C(=O)N[C@@H](CCC(=O)O)C(=O)N1)C(N)=O [Peptide-39] ({FITC-Ahx}-NFTA[S5]NLE[S5]W[Phe(3,4-Cl2)]AL-NH2; staple 5-9) | 175 fold | 2.4 µM |
